Experimental data reported in patent publication US20240051952A1, “HMOX1 INDUCERS” (Mitobridge Inc., priority 2019, published 2024).

test system: Human Heme Oxygenase-1 (HMOX-1); test: ELISA assay to measure human heme oxygenase-1 (HMOX-1) in HepG2 lysate; format: cell-based; conditions: fold change of human HMOX1 protein levels relative to DMSO control, HepG2
Description: Example 143. ELISA Assay to Measure Human Heme Oxygenase-1 (HMOX-1) in HepG2 lysate
Reagents and Technical Notes:
ELISA capture antibody, standard HO-1, detection antibody and streptavidin HRP were supplied in the DuoSet IC Human total HO-1 ELISA from R&D systems (DYC3776-2). The substrate cocktail was KPL LumiGLO reserve Chemiluminescent Substrate (54-71-00). PBS was Corning Cellgro Cell Culture (21-040-CV). 10×PBS+0.05% tween20 (PBST) was from KPL.
All incubations of the plate were at room temperature (20° C.) in a closed drawer.
The ELISA plate was processed manually. All loadings were with a multichannel pipet. Plates were emptied by shaking into the sink and tapping onto paper towels to remove any remaining reagent. Plate washing was accomplished by loading all wells with PBS+0.05% tween20 (PBST) using a squirt bottle, shaking the PBST out and tapping the plate onto paper towels.
Preparation of the ELISA Plate: • 1. anti-HO-1 capture antibody was 1440 μg/ml after reconstitution in PBS. This antibody was diluted to 8 μg/ml in PBS and 50 μl per well was added to a 384 well greiner “lumitrac 200” plate. Incubated overnight. • 2. The plate was emptied and 100 μl PBS+1% BSA added to all wells. Incubated 90 minutes at room temperature.
Preparation of HepG2 Lysate: • 1. Cells were cultured in a 96-well tissue culture plate washed with PBS and then the plate frozen at −70° C. overnight. Plates were allowed to warm to ice temperature in an ice bucket. 20 μl of PBS, 0.5% Triton X100, 1 mM EDTA with 1×HALT™ protease inhibitors was added to each well and the plates incubated on ice for 1 hour. • 2. The lysates were frozen at −20° C. overnight.
Measurement of HMOX1 (“HO-1”) • 1. In a polypropylene 384 well plate, human HO-1(after reconstitution in PBS+0.5% Triton+1 mM EDTA) was serially diluted from 20 ng/ml 2-fold in PBS+0.5% triton-X100, 1 mM EDTA to make a 12-point standard curve including a zero point. • 2. In a polypropylene 96 well plate, HepG2 lysate was diluted 1 to 20 in Diluent #4 from DUOSET kit in which the assay standard is also diluted. • 3. The PBS+1% BSA was emptied from the ELISA plate and 30 μl of all samples and standards were added (duplicates recommended). The plate was incubated 90 minutes. • 4. Emptied plate and washed 4 times with PBST. • 5. Diluted HO-1 detection antibody to 200 ng/ml in PBS+1% BSA and added 30 μl to all wells. Incubated 90 minutes. • 6. Emptied plate and washed 4 times with PBST. • 7. Added 30 μl streptavidin HRP at 1/200 in PBS+1% BSA (stock streptavidin concentration not specified) to all wells. Incubated 30 minutes. • 8. Emptied plate and washed 4 times with PBST. • 9. Diluted Lumiglo reserve reagent two parts buffer to one part lumiglo substrate. Added 30 μl to all wells. Incubated 5 minutes. • 10. Measured chemiluminescence on spectramax M5 using 150 ms integration.
Table 1 below lists EC50 and fold changes of human HMOX1 protein levels relative to DMSO control upon treatment with representative compounds.

Row | SMILES | Maximum Fold induction
1 | COCCNC(=O)c1ccc2c(c1)nc(Nc1nc3cc(OC(F)(F)F)ccc3[nH]1)n2C [Example 14, N-(2-methoxyethyl)-1-methyl-2-((5-(trifluoromethoxy)-1H-benzo[d]imidazol-2-yl)amino)-1H-benzo[d]imidazole-5-carboxamide] | 6-25
2 | COCCNC(=O)c1ccc2c(c1)nc(Nc1nc3ccccc3[nH]1)n2C [Example 12, 2-((1H-benzo[d]imidazol-2-yl)amino)-N-(2-methoxyethyl)-1-methyl-1H-benzo[d]imidazole-5-carboxamide] | 5.5
3 | Cn1c(Nc2nc3ccc(OC(F)(F)F)cc3o2)nc2cc(C(=O)NOCCO)ccc21 [Example 126, N-(2-hydroxyethoxy)-1-methyl-2-((6-(trifluoromethoxy)benzo[d]oxazol-2-yl)amino)-1H-benzo[d]imidazole-5-carboxamide] | 33-37
4 | CC(O)COCCNC(=O)c1ccc2c(c1)nc(Nc1nc3ccccc3o1)n2C (centres unmarked) [Example 25] | 26
5 | COCCOc1ccc2nc(Nc3nc4cc(C(=O)NCCOCCO)ccc4n3C)oc2c1 [Example 58, N-(2-(2-hydroxyethoxy)ethyl)-2-((6-(2-methoxyethoxy)benzo[d]oxazol-2-yl)amino)-1-methyl-1H-benzo[d]imidazole-5-carboxamide] | 41-60
6 | CC(O)CNC(=O)c1ccc2c(c1)nc(Nc1nc3ccccc3o1)n2C (centres unmarked) [Example 23, 2-(benzo[d]oxazol-2-ylamino)-N-(2-hydroxypropyl)-1-methyl-1H-benzo[d]imidazole-5-carboxamide] | 25-61
7 | COCCNC(=O)c1ccc2c(c1)nc(Nc1nc3ccc(C(C)C)cc3o1)n2C [Example 60, 2-((6-isopropylbenzo[d]oxazol-2-yl)amino)-N-(2-methoxyethyl)-1-methyl-1H-benzo[d]imidazole-5-carboxamide] | 42-56
8 | Cn1c(Nc2nc3ccc(Br)cc3o2)nc2cc(C(=O)O)ccc21 [Example 91, 2-((6-bromobenzo[d]oxazol-2-yl)amino)-1-methyl-1H-benzo[d]imidazole-5-carboxylic acid] | 17-26
9 | Cn1c(Nc2nc3cc(C(=O)NCCOCCO)ccc3o2)nc2ccccc21 [Example 118, N-(2-(2-hydroxyethoxy)ethyl)-2-((1-methyl-1H-benzo[d]imidazol-2-yl)amino)benzo[d]oxazole-5-carboxamide] | 24
10 | Cn1c(Nc2nc3cc(F)c(C(F)(F)F)cc3o2)nc2cc(C(=O)O)ccc21 [Example 107, 2-((5-fluoro-6-(trifluoromethyl)benzo[d]oxazol-2-yl)amino)-1-methyl-1H-benzo[d]imidazole-5-carboxylic acid] | 45
11 | COCCOc1ccc2nc(Nc3nc4cc(C(=O)O)ccc4n3C)oc2c1 [Example 55, 2-((6-(2-methoxyethoxy)benzo[d]oxazol-2-yl)amino)-1-methyl-1H-benzo[d]imidazole-5-carboxylic acid] | 15
12 | CN(C)CCONC(=O)c1ccc2c(c1)nc(Nc1nc3ccccc3o1)n2C [Example 123, 2-(benzo[d]oxazol-2-ylamino)-N-(2-(dimethylamino)ethoxy)-1-methyl-1H-benzo[d]imidazole-5-carboxamide] | 22
13 | Cn1c(Nc2nc3cccnc3o2)nc2cc(C(=O)NCCO)ccc21 [Example 110, N-(2-hydroxyethyl)-1-methyl-2-(oxazolo[5,4-b]pyridin-2-ylamino)-1H-benzo[d]imidazole-5-carboxamide] | 60
14 | CN(C)CC(=O)NCCNC(=O)c1ccc2c(c1)nc(Nc1nc3ccc(C(F)(F)F)cc3o1)n2C [Example 40, N-(2-(2-(dimethylamino)acetamido)ethyl)-1-methyl-2-((6-(trifluoromethyl)benzo[d]oxazol-2-yl)amino)-1H-benzo[d]imidazole-5-carboxamide] | 56-93
15 | COCCNC(=O)c1ccc2c(c1)nc(Nc1nc3ccc(OC(F)(F)F)cc3s1)n2C1CCN(C)CC1 [Example 3e, N-(2-methoxyethyl)-1-(1-methylpiperidin-4-yl)-2-((6-(trifluoromethoxy)benzo[d]thiazol-2-yl)amino)-1H-benzo[d]imidazole-5-carboxamide] | 6-46
16 | Cn1c(Nc2nc3ccccc3o2)nc2cc(C(=O)NCC3(O)COC3)ccc21 [Example 26, 2-(benzo[d]oxazol-2-ylamino)-N-((3-hydroxyoxetan-3-yl)methyl)-1-methyl-1H-benzo[d]imidazole-5-carboxamide] | 26
17 | CN(C)CC(=O)NCCONC(=O)c1ccc2c(c1)nc(Nc1nc3ccccc3o1)n2C [Example 121, 2-(benzo[d]oxazol-2-ylamino)-N-(2-(2-(dimethylamino)acetamido)ethoxy)-1-methyl-1H-benzo[d]imidazole-5-carboxamide] | 22-23

Other lines, results leading:

Row | Maximum Fold induction | SMILES
18 | 21 | O=C(NCCO)c1ccc2c(c1)nc(Nc1nc3ccc(OC(F)(F)F)cc3o1)n2CC1(O)COC1 [Example 95, N-(2-hydroxyethyl)-1-((3-hydroxyoxetan-3-yl)methyl)-2-((6-(trifluoromethoxy)benzo[d]oxazol-2-yl)amino)-1H-benzo[d]imidazole-5-carboxamide]
19 | 31-37 | Cn1c(Nc2nc3ccc(OC(F)(F)F)cc3o2)nc2cc(C(=O)NCCS(C)(=O)=O)ccc21 [Example 54, 1-methyl-N-(2-(methylsulfonyl)ethyl)-2-((6-(trifluoromethoxy)benzo[d]oxazol-2-yl)amino)-1H-benzo[d]imidazole-5-carboxamide]
20 | 23 | Cn1c(Nc2nc3ccc(OCCO)cc3o2)nc2cc(C(=O)NCCOCCO)ccc21 [Example 104, 2-((6-(2-hydroxyethoxy)benzo[d]oxazol-2-yl)amino)-N-(2-(2-hydroxyethoxy)ethyl)-1-methyl-1H-benzo[d]imidazole-5-carboxamide]
21 | 56 | Cn1c(Nc2nc3cc(C(F)(F)F)ccc3o2)nc2cc(C(=O)NCCOCCO)ccc21 [Example 43, N-(2-(2-hydroxyethoxy)ethyl)-1-methyl-2-((5-(trifluoromethyl)benzo[d]oxazol-2-yl)amino)-1H-benzo[d]imidazole-5-carboxamide]
22 | 37 | CC(O)CNC(=O)c1ccc2c(c1)nc(Nc1nc3ccc(C(F)(F)F)cc3o1)n2C (centres unmarked) [Example 35, N-(2-hydroxypropyl)-1-methyl-2-((6-(trifluoromethyl)benzo[d]oxazol-2-yl)amino)-1H-benzo[d]imidazole-5-carboxamide]
23 | 12-20 | COc1ccc2nc(Nc3nc4cc(C(=O)NCCO)ccc4n3C)oc2c1 [Example 92, N-(2-hydroxyethyl)-2-((6-methoxybenzo[d]oxazol-2-yl)amino)-1-methyl-1H-benzo[d]imidazole-5-carboxamide]
24 | 15-32 | CCn1c(Nc2nc3ccc(OC(F)(F)F)cc3o2)nc2cc(C(=O)NCCO)ccc21 [Example 86, 1-ethyl-N-(2-hydroxyethyl)-2-((6-(trifluoromethoxy)benzo[d]oxazol-2-yl)amino)-1H-benzo[d]imidazole-5-carboxamide]
25 | 33 | Cn1c(Nc2nc3nccnc3s2)nc2cc(C(=O)NCCOCCO)ccc21 [Example 114, N-(2-(2-hydroxyethoxy)ethyl)-1-methyl-2-(thiazolo[4,5-b]pyrazin-2-ylamino)-1H-benzo[d]imidazole-5-carboxamide]

same assay, conditions: human HMOX1 protein in HepG2 lysate, ELISA; * = average of 2 or more EC50 determinations; NA = Not Active

Row | SMILES | EC50
26 | COCCOc1ccc2nc(Nc3nc4cc(C(=O)O)ccc4n3C)oc2c1 [Example 55, 2-((6-(2-methoxyethoxy)benzo[d]oxazol-2-yl)amino)-1-methyl-1H-benzo[d]imidazole-5-carboxylic acid] | 4.5 µM
